Laboratory results reported in patent publication US8883504B2, “Cell differentiation suppressing agent, method of culturing cells using the same, culture solution, and cultured cell line” (Asahi Kasei Kabushiki Kaisha, priority 2003, dated 2014).

Assays:
[1] = system: SSEA-1 antigen; assay: Evaluation of the expression level of SSEA-1 antigen 1 (flow cytometry); type: cell-based, mouse; settings: D3ES cells, 7 days, FIG. 8
Procedure: For the D3ES cells prepared by the method described in (3) preparation of a mouse ES cell of Example 1, 8×10^4 cells were seeded in a 10 cm-diameter cell culture dish coated previously with a 0.1% aqueous gelatin solution to make 10 mL of the ES cell assay medium. 1 mL of the differentiation inhibiting agent A to F, which were dissolved in dimethylsulfoxide (DMSO) or culture medium or their mixture to make 40 μg/mL per each dish, or ESGRO, which was adjusted to make 10^4 unit/mL, was added, and culturing was carried out at 37° C. in 5% […] incubator for 7 days. To the culture medium was added DMSO to make the final concentration 0.1% or lower.
The cells cultured in (1) ES cell differentiation inhibition assay 2 as described above were washed twice with PBS, and were removed from the dish with a cell scraper. 300 μL of Hanks balanced salt solution (HBSS, Invitrogen Corp. made) containing 2% FBS was added to give 6×10^5 cells. 30 μL of MX-SSEA-1 antibody (Kyowa Medex Corp. made) diluted 50 folds with HBSS was added, and left stand for 40 minutes on ice. […] The sample used for flow cytometry was measured after passed through a nylon mesh with a 100 μm pore size to eliminate a coagulated mass. […]

[2] = system: cynomolgus monkey ES cells; assay: ES cell differentiation inhibition assay 6, alkaline phosphatase staining; type: cell-based; settings: for proportion of number of alkaline phosphatase stained colony to number of the total colony, in comparison with DMSO (0.1%): Matrigel-coated dish, cultured for 2 days, FIG. 15
Procedure: As the medium for culturing cynomolgus monkey ES cells, DME/F-12, 1:1 (SIGMA D6421) was added with respective factors in the final concentration as presented below to prepare a cynomolgus monkey ES cell culture medium: 20% knockout serum replacement: KSR (Invitrogen Corp. made, 10828-028), 1× nonessential amino acids (SIGMA M7145), 2 mM L-Glutamine (SIGMA G7513), 1 mM sodium pyruvate (SIGMA S8636), 1× penicillin/streptomycin solution (SIGMA P0781). The culture medium for a mouse feeder cell used for culturing cynomolgus monkey ES cells was prepared by adding respective factors to DMEM (Invitrogen Corp. made, 11960-044) in the final concentration shown below: 10% bovine fetus serum (Invitrogen Corp. made), 2 mM L-glutamine (Sigma G7513), 1× penicillin/streptomycin solution (Sigma P0781).
Gelatin (SIGMA Corp. made, Type A: from porcine ESkin, G2500) was dissolved in distilled water in 0.1% concentration, and 5 mL of the thus prepared 0.1% sterilized aqueous gelatin solution was added in a 6 cm-diameter cell culture dish, and then left stand at 37° C. for 30 minutes or longer. The aqueous gelatin solution was removed, and 2×10^6 mouse embryonic primary culture cell (Invitrogen Corp. made, YE9284400) treated with mitomycin, C (Kyouwa Hakkou Corp. made) was seeded and cultured by using the culture medium for the feeder cell as described above at 37° C. in 5% CO2 incubator (Tabai Espec Corp. made) for 5 hours or longer. The cynomolgus monkey ES cells (Tanabe Seiyaku, K.K. made) was seeded on mouse embryonic primary culture cell, and cultured and proliferated in 5 mL of cynomolgus monkey ES cell culture medium at 37° C. in 5% CO2 incubator for 3 days.
The cynomolgus monkey ES cells cultured by the method described in (1) culture of cynomolgus monkey ES cells as described above were washed with PBS and, then, a 0.1% collagenase solution (Wako Corp. made, 032-10534) dissolved in DMEM (Invitrogen Corp. made 11960-044), or a trypsin solution (prepared by mixing 10 mL of a 2.5% trypsin solution (Invitrogen Corp. made 15090-046), 20 mL of Knockout Serum Replacement (Invitrogen Corp. made 10828-028), 1 mL of a 100 mM CaCl2 aqueous solution and 69 mL of PBS) was added, and incubation was carried out at 37° C. for 5 minutes. 5 mL of the cynomolgus monkey ES cell culture medium was added, cell colonies were removed by using a small sized pipette and, then, dispersed, transferred to a 15 mL sterilized tube, and centrifuged at 1000 rpm for about 5 minutes by using the micro centrifuge (TOMY SEIKO made) to prepare pellets. The supernatant was removed, and then the cells were suspended again in 5 mL of the fresh ES cell culture medium to obtain the cynomolgus monkey ES cells. […]

SMILES | average fluorescence intensity per 1 cell (SSEA-1 antigen expression intensity per 1 cell) in comparison with medium without agent [1] | alkaline phosphatase staining of subcultured cells in comparison with DMSO ([2]; 3rd day after subculture after 3-day culture, FIG. 16) | proportion of number of alkaline phosphatase stained colony to number of the total colony, in comparison with DMSO (0.1%) [2] | effect on alkaline phosphatase staining in the presence of 6-bromoindirubin-3-oxime ([2]; subcultured, in the presence of 6-bromoindirubin-3-oxime, FIG. 16)
CC1(C)Cc2ccccc2C(=C(N=Nc2cccc(Cl)c2)C(N)=O)N1 [C, 2-(3-chloro-phenylazo)-2-(3,3-dimethyl-3,4-dihydro-2H-isoquinoline-1-ylidene)-acetamide] | significantly high |  |  | 
CC1(C)Cc2ccccc2C(=C(N=Nc2cccc([N+](=O)[O-])c2)C(N)=O)N1 [E, 2-(3,3-dimethyl-3,4-dihydro-2H-isoquinoline-1-ylidene)-2-(3-nitro-phenylazo)-acetamide] | significantly high |  |  | 
COc1ccc(N=NC(C(N)=O)=C2NC(C)(C)Cc3ccccc32)cc1 [F, 2-(3,3-dimethyl-3,4-dihydro-2H-isoquinoline-1-ylidene)-2-(4-methoxy-phenylazo)-acetamide] |  | stained significantly | significantly higher proportion of colonies stained with alkaline phosphatase | reinforced
CC(=O)c1ccc(/N=N/C(C(N)=O)=C2/NC(C)(C)Cc3ccccc32)cc1 [compound B, 2-(4-acetyl-phenylazo)-2-(3,3-dimethyl-3,4-dihydro-2H-isoquinoline-1-ylidene)-acetamide] |  |  | significantly higher proportion of colonies stained with alkaline phosphatase | 
